Laboratory results as given in patent US9617244B2, “Antibacterial quinoline derivatives” (JANSSEN PHARMACEUTICA NV, priority 2012, dated 2017).
Converted amounts (≈) assume the structure as drawn.

System: Staphylococcus aureus (ATCC29213)
Test: In-vitro anti-bacterial activity, microtitre plate assay, IC90 determination (non-mycobacterial strains)
Type: cell-based
Details: 90% inhibitory concentration for bacterial growth, 24 hours, resazurin fluorescence
Procedure, shortened: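 Growth inhibition measured fluorometrically with resazurin (530/590 nm) after overnight 37 °C incubation under normal atmosphere. Bacteria added at roughly 100 TCID50 per well in Mueller-Hinton broth to five-fold compound dilution series; IC90 reported in μg/ml.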

`COc1nc2ccc(Cl)cc2cc1C(c1ccc(Cl)cc1)C1(O)CCNC(Cc2ccc(F)cc2)C1` (centres unmarked) [Compound 347] and `COc1nc2ccc(F)cc2cc1C(c1ccc(Cl)cc1)C1(O)CCNC(Cc2ccccc2)C1` (centres unmarked) [Compound 370] are within 1.5-fold of each other in “IC90 STA B29213” value: 4.27 µg/mL (≈ 8.13 µM) for the first, 3.09 µg/mL (≈ 6.29 µM) for the second.

Compared with `COc1nc2ccc(Cl)cc2cc1C(c1ccc(Cl)cc1)C1(O)CCNC(Cc2ccc(F)cc2)C1` (centres unmarked) [Compound 348], `O=c1[nH]c2ccc(Br)cc2cc1C(c1ccc(Cl)cc1)C1(O)CCNC(Cc2ccc(F)cc2)C1` (centres unmarked) [Compound 363] is 2.2-fold lower in “IC90 STA B29213” value: 4.19 µg/mL (≈ 7.97 µM) for the first, 1.87 µg/mL (≈ 3.36 µM) for the second.

First: CSc1ccc(C(c2cc3cc(Cl)ccc3[nH]c2=O)C2(O)CCNC(c3ccc(F)cc3C)C2)cc1 (centres unmarked) [Compound 349]
Second: Cc1cc(F)ccc1C1CC(O)(C(c2ccc(S(C)(=O)=O)cc2)c2cc3cc(Cl)ccc3[nH]c2=O)CCN1 (centres unmarked) [Compound 378]
The “IC90 STA B29213” value of the first is 2.1-fold lower: 7.04 µg/mL (≈ 13.5 µM) for the first, 14.86 µg/mL (≈ 26.8 µM) for the second.

`CSc1ccc(C(c2cc3cc(Cl)ccc3[nH]c2=O)C2(O)CCNC(c3ccc(F)cc3C)C2)cc1` (centres unmarked) [Compound 350] and `COc1nc2ccc(Cl)cc2cc1C(c1ccc(SC)cc1)C1(O)CCNC(c2ccc(F)cc2C)C1` (centres unmarked) [Compound 353] are within 1.5-fold of each other in “IC90 STA B29213” value: 2.80 µg/mL (≈ 5.35 µM) for the first, 2.18 µg/mL (≈ 4.06 µM) for the second.

First: COc1nc2ccc(Cl)cc2cc1C(c1ccc(SC)cc1)C1(O)CCNC(c2ccc(F)cc2C)C1 (centres unmarked) [Compound 354]
Second: COc1nc2ccc(Cl)cc2cc1C(c1ccc(S(C)(=O)=O)cc1)C1(O)CCNC(c2ccc(F)cc2C)C1 (centres unmarked) [Compound 368]
The “IC90 STA B29213” value of the first is 4.5-fold lower: 3.95 µg/mL (≈ 7.35 µM) for the first, 17.71 µg/mL (≈ 31.1 µM) for the second.

First: C=CC1CC(O)(C(c2ccc(Cl)cc2)c2cc3cc(Br)ccc3[nH]c2=O)CCN1 (centres unmarked) [Compound 360]
Second: O=c1[nH]c2ccc(Br)cc2cc1C(c1ccc(Cl)cc1)C1(O)CCNC(Cc2ccc(F)cc2)C1 (centres unmarked) [Compound 364]
The “IC90 STA B29213” value of the first is 3.4-fold higher: 12.82 µg/mL (≈ 27.1 µM) for the first, 3.74 µg/mL (≈ 6.73 µM) for the second.

First: C=CC1CC(O)(C(c2ccc(Cl)cc2)c2cc3cc(Br)ccc3[nH]c2=O)CCN1 (centres unmarked) [Compound 361]
Second: O=c1[nH]c2ccc(Br)cc2cc1C(c1ccc(Cl)cc1)C1(O)CCNC(Cc2ccc(F)cc2)C1 (centres unmarked) [Compound 365]
The “IC90 STA B29213” value of the first is 3.4-fold higher: 12.82 µg/mL (≈ 27.1 µM) for the first, 3.74 µg/mL (≈ 6.73 µM) for the second.

Going from `C=CC1CC(O)(C(c2ccc(Cl)cc2)c2cc3cc(Br)ccc3[nH]c2=O)CCN1` (centres unmarked) [Compound 362] to `O=c1[nH]c2ccc(F)cc2cc1C(c1ccc(Cl)cc1)C1(O)CCNC(Cc2ccccc2)C1` (centres unmarked) [Compound 376], the “IC90 STA B29213” value falls from 12.82 µg/mL (≈ 27.1 µM) to 3.24 µg/mL (≈ 6.79 µM) (4-fold).

First: COc1nc2ccc(Cl)cc2cc1C(c1ccc(S(C)(=O)=O)cc1)C1(O)CCNC(c2ccc(F)cc2C)C1 (centres unmarked) [Compound 369]
Second: COc1nc2ccc(Br)cc2cc1C(c1ccc(Cl)cc1)C1(O)CCNC(Cc2ccccn2)C1 (centres unmarked) [Compound 379]
The “IC90 STA B29213” value of the first is 2.6-fold higher: 9.12 µg/mL (≈ 16 µM) for the first, 3.49 µg/mL (≈ 6.31 µM) for the second.

`COc1nc2ccc(Br)cc2cc1C(c1ccc(Cl)cc1)C1(O)CCNC(Cc2ccccn2)C1` (centres unmarked) [Compound 380] was tested, and the “IC90 STA B29213” value was 5.16 µg/mL (≈ 9.33 µM).
In the case of `COc1nc2ccc(Br)cc2cc1C(c1ccc(Cl)cc1)C1(O)CCNC(Cc2ccccn2)C1` (centres unmarked) [Compound 381], the “IC90 STA B29213” value is reported as 3.49 µg/mL (≈ 6.31 µM).

In the case of `O=c1[nH]c2ccc(F)cc2cc1C(c1ccc(Cl)cc1)C1(O)CCNC(Cc2ccccc2)C1` (centres unmarked) [Compound 375], the “IC90 STA B29213” value is reported as >12.90 µg/mL.

Same assay, conditions: Staphylococcus aureus, ATCC29213, 24 h, 90% inhibitory concentration for bacterial growth, resazurin fluorescence, read-out: IC90 STA B29213

Compared with `COc1nc2ccc(Br)cc2cc1C(c1ccc(Cl)cc1)C1(O)CCNC(Cc2ccc(F)cc2F)C1` (centres unmarked) [Compound 313], `O=c1[nH]c2ccc(Cl)cc2cc1C(c1ccc(Cl)cc1)C1(O)CCNC(Cc2ccc(F)cc2)C1` (centres unmarked) [Compound 343] is 2.9-fold higher in IC90: 2.4 µg/mL (≈ 4.08 µM) for the first, 6.9 µg/mL (≈ 13.5 µM) for the second.

First: C=CC1CC(O)(C(c2ccc(Cl)cc2)c2cc3cc(Br)ccc3[nH]c2=O)CCN1 (centres unmarked) [Compound 359]
Second: Cc1cc(F)ccc1C1CC(O)(C(c2ccc(S(C)(=O)=O)cc2)c2cc3cc(Cl)ccc3[nH]c2=O)CCN1 (centres unmarked) [Compound 377]
The IC90 of the first is lower: 12.8 µg/mL (≈ 27.1 µM) for the first, > 14.9 µg/mL for the second.

System: Mycobacterium smegmatis (ATCC607)
Test: In-vitro anti-bacterial activity against strain M. Smegmatis ATCC607
Type: cell-based
Details: 90% inhibitory concentration for bacterial growth, 48 hours, Alamar Blue fluorescence
Procedure, shortened: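 IC90 (μg/ml) derived from Alamar Blue fluorescence (530/590 nm) after 48 h growth at 37 °C under 5% CO2. About 250 CFU per well in Mueller-Hinton broth faced five-fold serial compound dilutions in BSA-containing wells.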

`COc1nc2ccc(Br)cc2cc1C(c1ccc(Cl)cc1)C1(O)CCNC(Cc2ccc(F)cc2F)C1` (centres unmarked) [Compound 313] and `COc1nc2ccc(Cl)cc2cc1C(c1ccc(Cl)cc1)C1(O)CCNC(Cc2ccc(F)cc2)C1` (centres unmarked) [Compound 347] are within 1.5-fold of each other in “IC90 MSM 607” value: 1.91 µg/mL (≈ 3.25 µM) for the first, 1.70 µg/mL (≈ 3.24 µM) for the second.

`COc1nc2ccc(Cl)cc2cc1C(c1ccc(Cl)cc1)C1(O)CCNC(Cc2ccc(F)cc2)C1` (centres unmarked) [Compound 348] and `COc1nc2ccc(F)cc2cc1C(c1ccc(Cl)cc1)C1(O)CCNC(Cc2ccccc2)C1` (centres unmarked) [Compound 370] are within 1.5-fold of each other in “IC90 MSM 607” value: 1.67 µg/mL (≈ 3.18 µM) for the first, 1.55 µg/mL (≈ 3.16 µM) for the second.

Compared with `CSc1ccc(C(c2cc3cc(Cl)ccc3[nH]c2=O)C2(O)CCNC(c3ccc(F)cc3C)C2)cc1` (centres unmarked) [Compound 349], `Cc1cc(F)ccc1C1CC(O)(C(c2ccc(S(C)(=O)=O)cc2)c2cc3cc(Cl)ccc3[nH]c2=O)CCN1` (centres unmarked) [Compound 378] is 1.7-fold higher in “IC90 MSM 607” value: 7.04 µg/mL (≈ 13.5 µM) for the first, 11.80 µg/mL (≈ 21.3 µM) for the second.

`CSc1ccc(C(c2cc3cc(Cl)ccc3[nH]c2=O)C2(O)CCNC(c3ccc(F)cc3C)C2)cc1` (centres unmarked) [Compound 350] and `COc1nc2ccc(Cl)cc2cc1C(c1ccc(SC)cc1)C1(O)CCNC(c2ccc(F)cc2C)C1` (centres unmarked) [Compound 353] are within 1.5-fold of each other in “IC90 MSM 607” value: 1.77 µg/mL (≈ 3.38 µM) for the first, 1.73 µg/mL (≈ 3.22 µM) for the second.

First: COc1nc2ccc(Cl)cc2cc1C(c1ccc(SC)cc1)C1(O)CCNC(c2ccc(F)cc2C)C1 (centres unmarked) [Compound 354]
Second: COc1nc2ccc(Cl)cc2cc1C(c1ccc(S(C)(=O)=O)cc1)C1(O)CCNC(c2ccc(F)cc2C)C1 (centres unmarked) [Compound 368]
The “IC90 MSM 607” value of the first is 4.5-fold lower: 3.14 µg/mL (≈ 5.85 µM) for the first, 14.06 µg/mL (≈ 24.7 µM) for the second.

Compared with `C=CC1CC(O)(C(c2ccc(Cl)cc2)c2cc3cc(Br)ccc3[nH]c2=O)CCN1` (centres unmarked) [Compound 360], `O=c1[nH]c2ccc(Br)cc2cc1C(c1ccc(Cl)cc1)C1(O)CCNC(Cc2ccc(F)cc2)C1` (centres unmarked) [Compound 363] is 1.7-fold lower in “IC90 MSM 607” value: 6.42 µg/mL (≈ 13.6 µM) for the first, 3.74 µg/mL (≈ 6.73 µM) for the second.

Going from `C=CC1CC(O)(C(c2ccc(Cl)cc2)c2cc3cc(Br)ccc3[nH]c2=O)CCN1` (centres unmarked) [Compound 361] to `O=c1[nH]c2ccc(Br)cc2cc1C(c1ccc(Cl)cc1)C1(O)CCNC(Cc2ccc(F)cc2)C1` (centres unmarked) [Compound 364], the “IC90 MSM 607” value falls from 6.42 µg/mL (≈ 13.6 µM) to 2.97 µg/mL (≈ 5.34 µM) (2.2-fold).

Going from `C=CC1CC(O)(C(c2ccc(Cl)cc2)c2cc3cc(Br)ccc3[nH]c2=O)CCN1` (centres unmarked) [Compound 362] to `O=c1[nH]c2ccc(Br)cc2cc1C(c1ccc(Cl)cc1)C1(O)CCNC(Cc2ccc(F)cc2)C1` (centres unmarked) [Compound 365], the “IC90 MSM 607” value falls from 10.18 µg/mL (≈ 21.5 µM) to 3.74 µg/mL (≈ 6.73 µM) (2.7-fold).

Compared with `COc1nc2ccc(Cl)cc2cc1C(c1ccc(S(C)(=O)=O)cc1)C1(O)CCNC(c2ccc(F)cc2C)C1` (centres unmarked) [Compound 369], `COc1nc2ccc(Br)cc2cc1C(c1ccc(Cl)cc1)C1(O)CCNC(Cc2ccccn2)C1` (centres unmarked) [Compound 379] is 1.6-fold lower in “IC90 MSM 607” value: 4.57 µg/mL (≈ 8.03 µM) for the first, 2.77 µg/mL (≈ 5.01 µM) for the second.

Compared with `O=c1[nH]c2ccc(F)cc2cc1C(c1ccc(Cl)cc1)C1(O)CCNC(Cc2ccccc2)C1` (centres unmarked) [Compound 375], `COc1nc2ccc(Br)cc2cc1C(c1ccc(Cl)cc1)C1(O)CCNC(Cc2ccccn2)C1` (centres unmarked) [Compound 380] is 3.1-fold lower in “IC90 MSM 607” value: 12.90 µg/mL (≈ 27 µM) for the first, 4.10 µg/mL (≈ 7.42 µM) for the second.

`O=c1[nH]c2ccc(F)cc2cc1C(c1ccc(Cl)cc1)C1(O)CCNC(Cc2ccccc2)C1` (centres unmarked) [Compound 376] and `COc1nc2ccc(Br)cc2cc1C(c1ccc(Cl)cc1)C1(O)CCNC(Cc2ccccn2)C1` (centres unmarked) [Compound 381] are within 1.5-fold of each other in “IC90 MSM 607” value: 2.57 µg/mL (≈ 5.39 µM) for the first, 1.75 µg/mL (≈ 3.17 µM) for the second.

Same assay, conditions: Mycolicibacterium smegmatis, ATCC607, 48 h, 90% inhibitory concentration for bacterial growth, Alamar Blue fluorescence, read-out: IC90 MSM 607

First: O=c1[nH]c2ccc(Cl)cc2cc1C(c1ccc(Cl)cc1)C1(O)CCNC(Cc2ccc(F)cc2)C1 (centres unmarked) [Compound 343]
Second: Cc1cc(F)ccc1C1CC(O)(C(c2ccc(S(C)(=O)=O)cc2)c2cc3cc(Cl)ccc3[nH]c2=O)CCN1 (centres unmarked) [Compound 377]
The IC90 of the first is lower: 4.35 µg/mL (≈ 8.51 µM) for the first, > 14.9 µg/mL for the second.

Compound `C=CC1CC(O)(C(c2ccc(Cl)cc2)c2cc3cc(Br)ccc3[nH]c2=O)CCN1` (centres unmarked) [Compound 359] has an IC90 of 10.2 µg/mL (≈ 21.5 µM).
